The record followed here is US9730940B2, “Purine inhibitors of human phosphatidylinositol 3-kinase delta” (priority 2012, dated 2017).

This test deals with PI3K-alpha (Homo sapiens (Human), UniProt P42336). Put plainly: HTRF PI3K biochemical assay, alpha isoform. The conditions noted are these: ratio PI3K-alpha IC50 value/PI3K-delta IC50 value. In general terms: TR-FRET usually uses a lanthanide donor and a delayed reading to cut background.
Sequence of PI3K-alpha (P42336 whole entry, looked up, canonical isoform): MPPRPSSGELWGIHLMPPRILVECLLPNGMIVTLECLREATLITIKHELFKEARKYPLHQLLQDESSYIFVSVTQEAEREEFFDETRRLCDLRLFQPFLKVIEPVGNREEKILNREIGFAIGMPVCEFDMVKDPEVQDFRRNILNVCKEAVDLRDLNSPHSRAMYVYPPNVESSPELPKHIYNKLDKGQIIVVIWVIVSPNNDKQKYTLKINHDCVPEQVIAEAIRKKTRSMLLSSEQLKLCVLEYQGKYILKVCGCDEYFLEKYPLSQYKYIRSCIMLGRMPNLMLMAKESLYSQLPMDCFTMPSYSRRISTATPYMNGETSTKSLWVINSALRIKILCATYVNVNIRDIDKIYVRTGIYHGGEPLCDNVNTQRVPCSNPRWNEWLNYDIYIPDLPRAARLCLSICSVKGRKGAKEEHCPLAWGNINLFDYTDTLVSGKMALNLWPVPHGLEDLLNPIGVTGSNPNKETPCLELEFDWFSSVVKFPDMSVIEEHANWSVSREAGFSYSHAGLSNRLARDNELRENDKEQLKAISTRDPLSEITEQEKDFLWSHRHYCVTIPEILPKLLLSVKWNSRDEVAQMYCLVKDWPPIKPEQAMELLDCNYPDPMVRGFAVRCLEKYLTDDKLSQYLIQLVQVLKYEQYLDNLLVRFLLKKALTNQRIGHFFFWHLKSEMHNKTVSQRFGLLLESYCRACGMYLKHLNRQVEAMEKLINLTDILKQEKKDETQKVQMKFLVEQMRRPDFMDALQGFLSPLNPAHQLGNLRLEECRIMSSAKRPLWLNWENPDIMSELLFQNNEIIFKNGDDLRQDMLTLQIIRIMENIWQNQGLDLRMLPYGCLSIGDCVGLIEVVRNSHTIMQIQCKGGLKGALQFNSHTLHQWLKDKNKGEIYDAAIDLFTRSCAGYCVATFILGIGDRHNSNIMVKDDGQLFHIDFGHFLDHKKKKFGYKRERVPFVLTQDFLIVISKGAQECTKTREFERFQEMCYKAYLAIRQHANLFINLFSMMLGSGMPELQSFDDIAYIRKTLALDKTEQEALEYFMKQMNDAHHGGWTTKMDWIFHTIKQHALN
Sequence of PI3K-alpha (P27986 whole entry partner, looked up, canonical isoform): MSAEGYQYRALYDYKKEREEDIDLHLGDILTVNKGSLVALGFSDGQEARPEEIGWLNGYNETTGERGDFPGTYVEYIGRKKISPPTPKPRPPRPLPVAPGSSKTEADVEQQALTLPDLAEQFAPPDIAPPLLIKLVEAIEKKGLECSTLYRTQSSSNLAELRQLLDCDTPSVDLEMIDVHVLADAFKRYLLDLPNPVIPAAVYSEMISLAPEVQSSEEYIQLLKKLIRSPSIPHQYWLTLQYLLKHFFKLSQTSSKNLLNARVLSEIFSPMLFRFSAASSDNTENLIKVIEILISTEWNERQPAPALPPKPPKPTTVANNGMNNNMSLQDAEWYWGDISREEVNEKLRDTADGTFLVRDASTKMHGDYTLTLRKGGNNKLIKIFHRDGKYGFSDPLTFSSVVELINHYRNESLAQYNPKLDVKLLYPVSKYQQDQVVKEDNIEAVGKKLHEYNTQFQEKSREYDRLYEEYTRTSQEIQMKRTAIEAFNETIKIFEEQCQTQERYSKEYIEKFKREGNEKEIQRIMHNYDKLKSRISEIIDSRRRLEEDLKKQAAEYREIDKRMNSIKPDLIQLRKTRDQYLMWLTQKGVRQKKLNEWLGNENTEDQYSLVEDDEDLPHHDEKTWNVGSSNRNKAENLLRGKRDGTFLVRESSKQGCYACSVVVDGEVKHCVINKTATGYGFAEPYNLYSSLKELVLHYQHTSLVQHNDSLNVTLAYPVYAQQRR

As to `CCn1c(-c2cnc(C)nc2)nc2c(O[C@H]3CCN(C(=O)C4CCC4C)C3)ncnc21` (single isomer, unassigned) [Compound 2-120, 9-ethyl-6-({(3S)-1-[([(1R,2S) or (1R,2R) or (1S,2R) or (1S,2S)]-methylcyclobutyl)carbonyl]pyrrolidin-3-yl}oxy)-8-(2-methylpyrimidin-5-yl)-9H-purine], the “Relative Selectivity versus PI3Kalpha” value was above 10.

For `CCn1c(-c2cnc(C)nc2)nc2c(O[C@H]3CCN(C(=O)C4CC4C(F)F)C3)ncnc21` (single isomer, unassigned) [Compound 2-124, 6-{[(3S)-{(1S,2S)- or (1R,2R)-[2-(difluoromethyl)cyclopropyl]carbonyl}pyrrolidin-3-yl]oxy}-9-ethyl-8-(2-methylpyrimidin-5-yl)-9H-purine], the “Relative Selectivity versus PI3Kalpha” value was above 10.

Turning to `CCn1ncc(-c2nc3c(O[C@H]4CCN(c5cncc(C)n5)C4)ncnc3n2C)c1C` [Compound 7-11, 8-(1-ethyl-5-methyl-1H-pyrazol-4-yl)-9-methyl-6-{[(3S)-1-(6-methylpyrazin-2-yl)pyrrolidin-3-yl]oxy}-9H-purine], the “Relative Selectivity versus PI3Kalpha” value is listed as above 10.

`CCn1c(-c2cnc(C)nc2)nc2c(OC3CCC(NC(=O)C4CCOCC4)C3)ncnc21` (single isomer, unassigned) [Compound 9-9, N-[(1S,3S) or (1R,3R)]-(3-{[9-ethyl-8-(2-methylpyrimidin-5-yl)-9H-purin-6-yl]oxy}cyclopentyl)tetrahydro-2H-pyran-4-carboxamide]: the “Relative Selectivity versus PI3Kalpha” value was above 10.

`CCn1ncc(-c2nc3c(O[C@H]4CCN(C(=O)C5CCc6nnnn65)C4)ncnc3n2C)c1C` (stereo partly drawn) [Compound 2-84, 6-{[(3S)-1-(6,7-dihydro-5H-pyrrolo[1,2-d]tetrazol-5-ylcarbonyl)pyrrolidin-3-yl]oxy}-8-(1-ethyl-5-methyl-1H-pyrazol-4-yl)-9-methyl-9H-purine (non-preferred name)]: the “Relative Selectivity versus PI3Kalpha” value is listed as above 10.

As to `CCn1ncc(-c2nc3c(O[C@H]4CCN(C(C)c5ccccc5)C4)ncnc3n2C)c1C` (stereo partly drawn) [Compound 6-1, 8-(1-ethyl-5-methyl-1H-pyrazol-4-yl)-9-methyl-6-{[(3S)-1-(1-phenylethyl)pyrrolidin-3-yl]oxy}-9H-purine], the “Relative Selectivity versus PI3Kalpha” value was above 10.

Consider `CCn1c(-c2cnc(C)nc2)nc2c(O[C@H]3CCN(C(=O)N4CCC(CO)C4)C3)ncnc21` (stereo partly drawn) [Compound 5-18, (1-{[(3S)-3-{[9-ethyl-8-(2-methylpyrimidin-5-yl)-9H-purin-6-yl]oxy}pyrrolidin-1-yl]carbonyl}pyrrolidin-3-yl)methanol], for which the “Relative Selectivity versus PI3Kalpha” value is above 10.

In the case of `CCn1ncc(-c2nc3c(O[C@H]4CCN(C(=O)OCC(C)C)C4)ncnc3n2C)c1C` [Compound 1-4, 2-methylpropyl (3S)-3-{[8-(1-ethyl-5-methyl-1H-pyrazol-4-yl)-9-methyl-9H-purin-6-yl]oxy}pyrrolidine-1-carboxylate], the “Relative Selectivity versus PI3Kalpha” value is reported as above 10.

`CCn1ncc(-c2nc3c(S[C@H]4CCN(C(=O)OC(C)(C)C)C4)ncnc3n2C)c1C` [Compound 10-1, (S)-tert-butyl 3-((8-(1-ethyl-5-methyl-1H-pyrazol-4-yl)-9-methyl-9H-purin-6-yl)thio)pyrrolidine-1-carboxylate]: the “Relative Selectivity versus PI3Kalpha” value is above 10.

With `CCn1c(-c2cnc(C)nc2)nc2c(O[C@H]3CCN(C(=O)C=C(C)C)C3)ncnc21` [Compound 2-116, 9-ethyl-6-{[(3S)-1-(3-methylbut-2-enoyl)pyrrolidin-3-yl]oxy}-8-(2-methylpyrimidin-5-yl)-9H-purine], the “Relative Selectivity versus PI3Kalpha” value was above 10.

`CCC(=O)N1CC[C@H](Oc2ncnc3c2nc(-c2cnn(-c4ccccc4)c2)n3C)C1` [Compound 3-11, 9-methyl-8-(1-phenyl-1H-pyrazol-4-yl)-6-{[(3S)-1-propanoylpyrrolidin-3-yl]oxy}-9H-purine]: the “Relative Selectivity versus PI3Kalpha” value is reported as above 10.

Consider `CCn1ncc(-c2nc3c(O[C@H]4CCN(C(=O)c5ccn[nH]5)C4)ncnc3n2C)c1C` [Compound 2-33, 8-(1-ethyl-5-methyl-1H-pyrazol-4-yl)-9-methyl-6-{[(3S)-1-(1H-pyrazol-5-ylcarbonyl)pyrrolidin-3-yl]oxy}-9H-purine], for which the “Relative Selectivity versus PI3Kalpha” value is above 10.

Consider `CCn1ncc(-c2nc3c(O[C@H]4CCN(C(=O)C5CC(F)(F)C5)C4)ncnc3n2C)c1C` [Compound 2-106, 6-({(3S)-1-[(3,3-difluorocyclobutyl)carbonyl]pyrrolidin-3-yl}oxy)-8-(1-ethyl-5-methyl-1H-pyrazol-4-yl)-9-methyl-9H-purine], for which the “Relative Selectivity versus PI3Kalpha” value was above 10.

In the case of `CCC(=O)N1CC[C@H](Oc2ncnc3c2nc(Oc2cc(F)cc(OC)c2)n3C)C1` [Compound 12-2, 8-(3-fluoro-5-methoxyphenoxy)-9-methyl-6-{[(3S)-1-propanoylpyrrolidin-3-yl]oxy}-9H-purine], the “Relative Selectivity versus PI3Kalpha” value is above 10.

With `CCc1oncc1C(=O)N1CC[C@H](Oc2ncnc3c2nc(-c2cnn(CC)c2C)n3C)C1` [Compound 2-68, 6-({(3S)-1-[(5-ethylisoxazol-4-yl)carbonyl]pyrrolidin-3-yl}oxy)-8-(1-ethyl-5-methyl-1H-pyrazol-4-yl)-9-methyl-9H-purine], the “Relative Selectivity versus PI3Kalpha” value is reported as above 10.

For `CCn1c(-c2cnc(OC)c(F)c2)nc2c(O[C@H]3CCN(C(=O)c4cncn4C)C3)ncnc21` [Compound 3-58, 9-ethyl-8-(5-fluoro-6-methoxypyridin-3-yl)-6-({(3S)-1-[(1-methyl-1H-imidazol-5-yl)carbonyl]pyrrolidin-3-yl}oxy)-9H-purine], the “Relative Selectivity versus PI3Kalpha” value is given as above 10.

As for `CCn1c(N(C)C(C)C)nc2c(O[C@H]3CCN(C(=O)OC(C)(C)C)C3)ncnc21` [Compound 13-7, tert-butyl (3S)-3-({9-ethyl-8-[methyl(1-methylethyl)amino]-9H-purin-6-yl}oxy)pyrrolidine-1-carboxylate], the “Relative Selectivity versus PI3Kalpha” value is given as above 10.

With `CCC(=O)N1CC[C@H](Oc2ncnc3c2nc(-c2ccc(OC)c(C)c2)n3C)C1` [Compound 3-36, 8-(4-methoxy-3-methylphenyl)-9-methyl-6-{[(3S)-1-propanoylpyrrolidin-3-yl]oxy}-9H-purine], the “Relative Selectivity versus PI3Kalpha” value is reported as above 10.

For `CCn1c(-c2cnc(C)nc2)nc2c(O[C@H]3CCN(c4ccccc4C)C3)ncnc21` [Compound 7-16, 9-ethyl-6-{[(3S)-1-(2-methylphenyl)pyrrolidin-3-yl]oxy}-8-(2-methylpyrimidin-5-yl)-9H-purine], the “Relative Selectivity versus PI3Kalpha” value is listed as above 10.

Regarding `CCn1c(-c2ccc(OC)nc2)nc2c(O[C@H]3CCN(C(=O)C4CCOCC4)C3)ncnc21` [Compound 3-52, 9-ethyl-8-(6-methoxypyridin-3-yl)-6-{[(3S)-1-(tetrahydro-2H-pyran-4-ylcarbonyl)pyrrolidin-3-yl]oxy}-9H-purine], the “Relative Selectivity versus PI3Kalpha” value is above 10.

With `CCn1ncc(-c2nc3c(O[C@H]4CCN(C(=O)c5cnoc5C(C)C)C4)ncnc3n2C)c1C` [Compound 2-87, 8-(1-ethyl-5-methyl-1H-pyrazol-4-yl)-9-methyl-6-{[(3S)-1-{[5-(1-methylethyl)isoxazol-4-yl]carbonyl}pyrrolidin-3-yl]oxy}-9H-purine], the “Relative Selectivity versus PI3Kalpha” value is above 10.

Consider `CCn1c(-c2cnc(C)nc2)nc2c(O[C@H]3CCN(C(=O)N4CCC(C)(C)C4)C3)ncnc21` [Compound 5-19, 6-({(3S)-1-[(3,3-dimethylpyrrolidin-1-yl)carbonyl]pyrrolidin-3-yl}oxy)-9-ethyl-8-(2-methylpyrimidin-5-yl)-9H-purine], for which the “Relative Selectivity versus PI3Kalpha” value is reported as above 10.

Consider `CCn1c(N2CCC(S(C)(=O)=O)C2)nc2c(O[C@H]3CCN(C(=O)OC(C)(C)C)C3)ncnc21` (stereo partly drawn) [Compound 13-3, tert-butyl (3S)-3-({9-ethyl-8-[3-(methylsulfonyl)pyrrolidin-1-yl]-9H-purin-6-yl}oxy)pyrrolidine-1-carboxylate], for which the “Relative Selectivity versus PI3Kalpha” value is given as above 10.

As for `CCn1ncc(-c2nc3c(O[C@H]4CCN(C(=O)c5cnoc5C)C4)ncnc3n2C)c1C` [Compound 2-65, 8-(1-ethyl-5-methyl-1H-pyrazol-4-yl)-9-methyl-6-({(3S)-1-[(5-methylisoxazol-4-yl)carbonyl]pyrrolidin-3-yl}oxy)-9H-purine], the “Relative Selectivity versus PI3Kalpha” value is above 10.

For `CCn1ncc(-c2nc3c(OC4CCN(C(=O)CC5CCOCC5)C4)ncnc3n2C)c1C` (stereo not drawn) [Compound 2-6, 8-(1-ethyl-5-methyl-1H-pyrazol-4-yl)-9-methyl-6-{[1-(tetrahydro-2H-pyran-4-ylacetyl)pyrrolidin-3-yl]oxy}-9H-purine], the “Relative Selectivity versus PI3Kalpha” value is reported as above 10.

`CCn1c(-c2cnc(C)nc2)nc2c(O[C@H]3CCN(c4ccc5cnoc5c4)C3)ncnc21` [Compound 7-25, 6-{[(3S)-1-(1,2-benzisoxazol-6-yl)pyrrolidin-3-yl]oxy}-9-ethyl-8-(2-methylpyrimidin-5-yl)-9H-purine]: the “Relative Selectivity versus PI3Kalpha” value is reported as above 10.

Consider `CCn1ncc(-c2nc3c(OC4CCC(NC(=O)C5CCOCC5)C4)ncnc3n2C)c1C` [Compound 9-3, cis-N-[(1S,3R)-3-{[8-(1-ethyl-5-methyl-1H-pyrazol-4-yl)-9-methyl-9H-purin-6-yl]oxy}cyclopentyl]tetrahydro-2H-pyran-4-carboxamide], for which the “Relative Selectivity versus PI3Kalpha” value was found to be 8.

`CCn1ncc(-c2nc3c(O[C@H]4CCN(C(=O)c5nccn5C)C4)ncnc3n2C)c1C` [Compound 2-39, 8-(1-ethyl-5-methyl-1H-pyrazol-4-yl)-9-methyl-6-({(3S)-1-[(1-methyl-1H-imidazol-2-yl)carbonyl]pyrrolidin-3-yl}oxy)-9H-purine]: the “Relative Selectivity versus PI3Kalpha” value is reported as above 10.

Turning to `CCC1CN(C(=O)C2CC2)CC1Oc1ncnc2c1nc(-c1cnc(C)nc1)n2CC` (stereo not drawn) [Compound 3-46, [3R,4S and 3S,4R]-6-{[1-(cyclopropylcarbonyl)-4-ethylpyrrolidin-3-yl]oxy}-9-ethyl-8-(2-methylpyrimidin-5-yl)-9H-purine], the “Relative Selectivity versus PI3Kalpha” value is on record as above 10.

With `CCC(=O)N1CC[C@H](Oc2ncnc3c2nc(-c2cc(O)cc(F)c2)n3C)C1` [Compound 3-9, 3-fluoro-5-(9-methyl-6-{[(3S)-1-propanoylpyrrolidin-3-yl]oxy}-9H-purin-8-yl)phenol], the “Relative Selectivity versus PI3Kalpha” value is reported as above 10.
